# Measurements as given in patent publication US20220348590A1, “CYCLOOXYGENASE-2 INHIBITORS AND USES THEREOF” (The Board Institute, Inc., priority 2019, published 2022).
# Like-named read-outs stand apart in the source and are kept apart here.
# Biological target: T1, human recombinant COX2 (hCOX2) (UniProt P35354)
# T1 sequence (P35354 1-604): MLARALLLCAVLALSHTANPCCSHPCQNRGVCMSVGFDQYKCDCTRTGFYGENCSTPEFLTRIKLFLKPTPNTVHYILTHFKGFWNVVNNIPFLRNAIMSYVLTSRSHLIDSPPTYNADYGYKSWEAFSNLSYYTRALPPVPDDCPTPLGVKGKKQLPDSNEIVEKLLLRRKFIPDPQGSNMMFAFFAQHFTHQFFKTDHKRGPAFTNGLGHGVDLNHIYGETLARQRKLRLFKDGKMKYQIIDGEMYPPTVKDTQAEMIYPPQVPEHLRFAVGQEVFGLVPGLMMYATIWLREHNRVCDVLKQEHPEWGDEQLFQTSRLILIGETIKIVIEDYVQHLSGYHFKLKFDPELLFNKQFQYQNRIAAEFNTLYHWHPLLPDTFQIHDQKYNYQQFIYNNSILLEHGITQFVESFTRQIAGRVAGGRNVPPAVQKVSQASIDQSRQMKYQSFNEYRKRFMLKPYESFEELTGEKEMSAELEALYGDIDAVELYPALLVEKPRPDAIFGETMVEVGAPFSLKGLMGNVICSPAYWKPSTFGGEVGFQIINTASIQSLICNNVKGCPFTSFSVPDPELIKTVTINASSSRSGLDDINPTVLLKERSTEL
# Assay: LCMS-based COX2 enzymatic inhibition assay (PGE2 quantification)
# Assay type: biochemical
# Design: COX2 2 minutes pge2/pge2d4 area ratio Avg; other: 2 minutes; readout pge2/pge2d4 area ratio; average; COX2 2 minutes pge2/pge2d4 area ratio Avg; LLE; average LLE; COX2 2 minutes pge2 area (counts) Avg; readout pge2 area (counts); other: 2 min; "ovine COX2 (oCOX2), human recombinant COX2 (hCOX2)"
# Conditions: 2 minutes; for COX2 2 minutes pge2/pge2d4 area ratio Avg. LLE / COX2 2 minutes pge2 area (counts) Avg. LLE: average LLE; for IC50: average
# Description: We have adapted a previously reported cyclooxygenase enzymatic assay utilizing LCMS quantification of PGE2 as the product of COX-1 and COX2 catalyzed conversion of arachidonic acid to evaluate the binding properties of newly synthesized ligands [Cao, 2011]. These optimized and miniaturized (384-well plates) LCMS-based COX-1 and COX2 enzymatic assays enabled us to quickly evaluate newly synthesized ligands for COX2 binding affinity and selectivity vs COX-1. Using a shorter ligand-enzyme incubation time in the LCMS assay (2 minutes vs 10 minutes) also permitted us to prioritize ligands with faster binding kinetics. Considering the relatively slow on-rate kinetics of known coxibs, due to their 3-step binding mechanism [Marnett, 2009], we believe that optimizing this critical parameter will be key to the successful development of a COX2 PET tracer. Using these enzymatic assays, we have evaluated>200 newly synthesized ligands against COX2 and >20 ligands against COX-1. Another critical property necessary for a good PET radiotracer is to have low non-specific binding (NSB) to increase the free fraction and maximize the signal to noise ratio. This property can be evaluated using in-vitro protein binding assays, and we have now evaluated>50 newly synthesized ligands in mouse, rat and human plasma protein binding (PPB) assays as well as >15 ligands in a mouse brain protein binding (BPB) assay.
# Ovine COX-1 (oCOX-1), ovine COX2 (oCOX2), human recombinant COX2 (hCOX2), arachidonic acid, PGE2, d4-PGD2, and […] (labeled with deuterium atoms at positions 3 and 4) were purchased from Cayman Chemicals (Ann Arbor, Mich.). The cofactors (−)epinephrine and hematin, and the COX inhibitors indomethacin, resveratrol and diclofenac were purchased from Sigma-Aldrich (St. Louis, Mo.). Celecoxib was purchased from 3B PharmaChem International (Wuhan, China). All organic solvents were HPLC grade or better and were purchased from Thermo Fisher (Hanover Park, Ill.). Formic acid was purchased from EMD Chemicals (San Diego, Calif.). Purified water was prepared by using a Millipore Milli-Q purification system (Millipore, Billerica, Mass.). All other chemicals and solvents were ACS reagent grade, unless stated otherwise.
# In an Eppendorf tube, 146 μL of 100 mM Tris.HCl (pH 8.0) buffer, 2 μL of 100 μM hematin (co-factor) and 10 μL of 40 mM L-epinephrine (co-factor) were mixed at room temperature. Next, 20 μL of Tris.HCl (pH 8.0) buffer containing 0.2 μg COX2 or 0.1 μg COX-1 (approximately 1 unit of enzyme; 1 unit COX utilizes 1 nmol 02/mg/min at 37° C.) was added, and the solution was incubated at room temperature for 2 min. A 2 μL aliquot of the COX inhibitor in DMSO was added to the enzyme solution and preincubated at 37° C. for 10 min. Negative controls were identical except that 2 μL aliquots of DMSO without inhibitor were used instead.
# Each COX reaction was initiated by adding 20 μL of arachidonic acid in Tris.HCl (pH 8.0) buffer to give a final concentration of 5 μM; and the reaction was terminated after 2 min by adding 20 μL of 2.0 M HCl. The surrogate standards d4-PGE2 and d4-PGD2 (10 μL aliquot of 50 ng/mL solution in methanol) were added to correct for errors or degradation during sample handling and for variation in injection volume or instrument response during LC-MS-MS. After 30 min, PGE2, PGD2 and their surrogate standards were extracted from each incubation mixture using 800 μL hexane/ethyl acetate (50:50, v/v). The organic phase was removed, evaporated to dryness, and reconstituted in 100 μL methanol/water (50:50, v/v) for analysis using LC-MS-MS.
# The concentration of PGE2 in each sample was measured using LC-MS-MS, and the percent of COX inhibition by each test solution was determined by comparing the amount of PGE2 produced in the experiment with that produced in the negative control incubation. The formation of PGD2 was measured for quality control purposes, since the levels of PGD2 should be proportional to those of PGE2. […]
# [1] = readout pge2/pge2d4 area ratio, read-out: COX2 2 minutes pge2/pge2d4 area ratio Avg. IC50
# [2] = readout pge2 area (counts), read-out: COX2 2 minutes pge2 area (counts) Avg. IC50
# [3] = read-out: COX2 2 minutes pge2/pge2d4 area ratio Avg. IC50 (microM), readout pge2/pge2d4 area ratio
COX2 2 minutes pge2/pge2d4 area ratio Avg. LLE (readout pge2/pge2d4 area ratio),IC50 [1] [µM],COX2 2 minutes pge2 area (counts) Avg. LLE (readout pge2 area (counts)),IC50 [2] [µM],SMILES,"IC50 (read-out: COX2 2 minutes pge2/pge2d4 area ratio Avg. IC50 (microM), readout pge2/pge2d4 area ratio, 2 min) [µM]",IC50 [3] [µM]
3.082,3.7,2.9649,4.84,CS(=O)(=O)c1ccc(-c2cccc([S@+]([O-])Cc3cccs3)n2)cc1 [Compound 251],,
3.969,0.951,4.01,0.832,Cn1nccc1CNc1cccc(-c2ccc(S(C)(=O)=O)cc2)n1 [Compound 197],,
3.84,0.0656,3.875,0.06,"C[C@H](Nc1cccc(-c2ccc(S(C)(=O)=O)cc2)n1)c1ccco1 (single isomer, unassigned) [Compound 89]",,
2.992,1.86,2.918,2.24,CS(=O)(=O)c1ccc(-c2cncc(/C=C/c3cccs3)n2)cc1 [Compound 223],,
3.95,0.555,3.961,0.514,CS(=O)(=O)c1ccc(-c2cncc(NC3CCCCC3)n2)cc1 [Compound 180],,
,4.04,,4.56,CS(=O)(=O)c1ccc(-c2nc3cnn(Cc4cccs4)c3[nH]2)cc1 [Compound 256],,
3.66,1.54,3.522,2.24,CS(=O)(=O)c1ccc(-c2cncc(SCc3ncco3)n2)cc1 [Compound 217],,
4.384,2.06,4.493,1.6,COc1ncc(NCc2cnco2)nc1-c1ccc(S(C)(=O)=O)cc1 [Compound 227],,
,,,,CS(=O)(=O)c1ccc(-c2ccc3c(ncn3Cc3cccs3)n2)cc1 [Compound 308],,5.2
4.932,0.0933,4.948,0.0881,COc1ncc(NCc2nccs2)nc1-c1ccc(S(C)(=O)=O)cc1 [Compound 107],,
3.784,1.67,3.69,2.09,CS(=O)(=O)c1ccc(-c2cc(NCc3cccs3)cnn2)cc1 [Compound 220],,
2.767,0.656,2.661,0.839,COCc1ccc(-c2ccc(S(C)(=O)=O)cc2)nc1NCc1cccs1 [Compound 189],,
4.116,0.964,4.04,1.23,"CS(=O)(=O)c1ccc(-c2cncc(OC[C@H]3CCCS3)n2)cc1 (single isomer, unassigned) [Compound 198]",,
,2.5,,2.15,CS(=O)(=O)c1ccc(-c2cc(NCc3ccco3)ccn2)cc1 [Compound 235],,
4.063,4.55,4.034,,CS(=O)(=O)c1ccc(-c2cnc(C(=O)O)c(NCc3cccs3)n2)cc1 [Compound 261],,
2.722,0.0406,2.834,0.0288,CS(=O)(=O)c1ccc(-c2cccc(OCc3ccc(Cl)s3)n2)cc1 [Compound 69],,
2.641,4.81,2.624,,CS(=O)(=O)c1ccc(-c2nc(NCc3cccs3)ccc2S(C)(=O)=O)cc1 [Compound 265],,
4.842,0.226,4.928,0.216,CS(=O)(=O)c1ccc(-c2cncc(OCc3ccco3)n2)cc1 [Compound 143],,
2.526,3.44,2.379,4.08,"C[C@@H](Oc1cncc(-c2ccc(S(C)(=O)=O)cc2)n1)c1cccs1 (single isomer, unassigned) [Compound 249]",,
4.781,0.0345,4.654,0.0405,COc1ncc(NCc2sccc2C)nc1-c1ccc(S(C)(=O)=O)cc1 [Compound 62],,
2.741,1.27,2.638,1.59,CS(=O)(=O)c1ccc(-c2cccc(C(=O)Cc3cccs3)n2)cc1 [Compound 206],,
5.647,0.0875,5.572,0.103,COc1ncc(NCc2ccns2)nc1-c1ccc(S(C)(=O)=O)cc1 [Compound 102],,
,,,,CS(=O)(=O)c1ccc(-c2cncc([S+]([O-])Cc3cccs3)n2)cc1 (centres unmarked) [Compound 303],,5.2
4.51,1.01,4.612,0.832,CS(=O)(=O)c1ccc(-c2cncc(NCc3cncs3)n2)cc1 [Compound 201],,

SMILES,COX2 2 minutes pge2/pge2d4 area ratio Avg. LLE (readout pge2/pge2d4 area ratio),IC50 [1] [µM],COX2 2 minutes pge2 area (counts) Avg. LLE (readout pge2 area (counts)),IC50 [2] [µM],"IC50 (read-out: COX2 2 minutes pge2/pge2d4 area ratio Avg. IC50 (microM), readout pge2/pge2d4 area ratio, 2 min) [µM]",IC50 [3] [µM]
"CS(=O)(=O)c1ccc(-c2cccc(C3CC3c3ccoc3)n2)cc1 (single isomer, unassigned) [Compound 314, 2-[2-(furan-3-yl)cyclopropyl]-6-(4-methanesulfonylphenyl)pyridine]",,,2.024,,5.2,
Cc1cccc(COc2cncc(-c3ccc(S(C)(=O)=O)cc3)n2)c1 [Compound 285],2.514,,2.514,,,5.2
